biological target: USP7 (Homo sapiens (Human), UniProt Q93009); assay: USP7 Assay B (Ubitquin-Rhodamine110 Assay); format: biochemical; conditions: Ub-Rh110 substrate 25 nM
Protocol: Stock compound solutions were stored at −20° C. as 10 mM in DMSO. […] Prestamped assay plates were allowed to come to room temperature on the day of the assay. For the screen, 100 nL of 2 mM was pre-dispensed for a final screening concentration of 10 μM (DMSO(fc)=0.5%). […] Unless otherwise indicated, all follow-up assays were run on triplecate plates. […] Pre-stamped with compounds were either not preincubated or preincubated with USP7 between 30 to 120 minutes prior to the addition of 10 μL of 2×Ub-Rh110 to compound plates. Plates were incubated stacked for either 23 or 45 minutes at room temperature before fluorescence was read on the Envision (Excitation at 485 nm and Emission at 535 nm; Perkin Elmer) or on the PheraSTAR (Excitation at 485 nm and Emission at 535 nm; BMG Labtech).
Data from USP7 Assays A and B were reported as percent inhibition (inh) compared with control wells based on the following equation: % inh=1−((FLU−AveLow)/(AveHigh−AveLow)) where FLU=measured Fluorescence (See Tables 2 and 3). AveLow=average Fluorescence of no enzyme control (n=16). AveHigh=average Fluorescence of DMSO control (n=16). IC50 values were determined by curve fitting of the standard 4 parameter logistic fitting algorithm included in the Activity Base software package: IDBS XE Designer Model205. Data is fitted using the Levenburg Marquardt algorithm.

Sequence of USP7 (Q93009 208-1102): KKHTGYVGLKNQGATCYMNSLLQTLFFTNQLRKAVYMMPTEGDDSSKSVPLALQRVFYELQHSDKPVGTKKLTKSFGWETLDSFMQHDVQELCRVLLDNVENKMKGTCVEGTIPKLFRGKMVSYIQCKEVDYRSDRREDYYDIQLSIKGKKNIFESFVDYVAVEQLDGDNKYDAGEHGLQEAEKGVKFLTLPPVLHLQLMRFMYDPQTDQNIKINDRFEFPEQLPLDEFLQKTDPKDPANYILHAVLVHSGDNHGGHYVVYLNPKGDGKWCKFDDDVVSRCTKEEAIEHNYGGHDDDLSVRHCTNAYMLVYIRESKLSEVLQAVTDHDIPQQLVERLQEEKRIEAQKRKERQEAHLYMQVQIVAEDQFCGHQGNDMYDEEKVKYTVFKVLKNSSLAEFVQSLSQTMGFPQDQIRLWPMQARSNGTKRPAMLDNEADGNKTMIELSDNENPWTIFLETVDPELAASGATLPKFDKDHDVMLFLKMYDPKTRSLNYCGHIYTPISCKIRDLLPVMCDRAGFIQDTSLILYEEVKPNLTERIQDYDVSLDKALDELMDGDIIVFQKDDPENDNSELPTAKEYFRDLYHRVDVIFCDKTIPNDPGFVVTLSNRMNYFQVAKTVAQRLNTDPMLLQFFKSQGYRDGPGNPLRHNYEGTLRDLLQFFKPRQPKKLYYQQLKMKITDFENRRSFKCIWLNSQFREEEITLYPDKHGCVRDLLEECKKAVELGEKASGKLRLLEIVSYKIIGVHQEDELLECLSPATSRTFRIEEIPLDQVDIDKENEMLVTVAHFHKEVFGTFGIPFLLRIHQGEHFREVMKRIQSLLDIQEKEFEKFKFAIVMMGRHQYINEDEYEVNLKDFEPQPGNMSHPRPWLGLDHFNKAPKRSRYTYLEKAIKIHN

`Cc1ccc2[nH]ncc2c1-c1cccc(C(=O)N2CCC(O)(Cn3cnn4cccc4c3=O)CC2)c1` [Compound I-24, 3-((4-hydroxy-1-(3-(5-methyl-1H-indazol-4-yl)benzoyl)piperidin-4-yl)methyl)pyrrolo[2,1-f][1,2,4]triazin-4(3H)-one] and `Cc1ccccc1-c1cccc(C(=O)N2CCC(O)(Cn3cnn4cccc4c3=O)CC2)c1` [Compound I-6, 3-((4-hydroxy-1-(2′-methyl-[1,1′-biphenyl]-3-carbonyl)piperidin-4-yl)methyl)pyrrolo[2,1-f][1,2,4]triazin-4(3H)-one] fall in the same range of IC50: 1 to 10 µM for the first, 1 to 10 µM for the second.

`O=C(c1ccc(-c2ccc(C(=O)N3CCC(O)(Cn4cnn5cccc5c4=O)CC3)c(Cl)c2)cc1)N1CCCC1` [Compound I-51, 3-((1-(3-chloro-4′-(pyrrolidine-1-carbonyl)-[1,1′-biphenyl]-4-carbonyl)-4-hydroxypiperidin-4-yl)methyl)pyrrolo[2,1-f][1,2,4]triazin-4(3H)-one] and `O=C(c1ccc(-c2ccc(C(=O)N3CCC(O)(Cn4cnn5cccc5c4=O)CC3)cc2)cc1)N1CCCC1` [Compound I-39, 3-((4-hydroxy-1-(4′-(pyrrolidine-1-carbonyl)-[1,1′-biphenyl]-4-carbonyl)piperidin-4-yl)methyl)pyrrolo[2,1-f][1,2,4]triazin-4(3H)-one] fall in the same range of IC50: 1 to 10 µM for the first, 1 to 10 µM for the second.

`O=C(Nc1cc2c(=O)n(CC3(O)CCN(C(=O)C4CC4)CC3)cnn2c1)c1ccc(C(F)(F)F)cc1` [Compound I-102, N-(3-((1-(cyclopropanecarbonyl)-4-hydroxypiperidin-4-yl)methyl)-4-oxo-3,4-dihydropyrrolo[2,1-f][1,2,4]triazin-6-yl)-4-(trifluoromethyl)benzamide] and `Cc1ccc(C(=O)Nc2cc3c(=O)n(CC4(O)CCN(C(=O)C5CC5)CC4)cnn3c2)cc1Cl` [Compound I-108, 3-chloro-N-(3-((1-(cyclopropanecarbonyl)-4-hydroxypiperidin-4-yl)methyl)-4-oxo-3,4-dihydropyrrolo[2,1-f][1,2,4]triazin-6-yl)-4-methylbenzamide] cannot be ordered by IC50: > 10 µM for the first, > 10 µM for the second.

Compared with `Cc1nnnn1Cc1ccc(C(=O)N2CCC(O)(Cn3cnn4cccc4c3=O)CC2)cc1` [Compound I-66, 3-((4-hydroxy-1-(4-((5-methyl-1H-tetrazol-1-yl)methyl)benzoyl)piperidin-4-yl)methyl)pyrrolo[2,1-f][1,2,4]triazin-4(3H)-one], `O=C(c1ccc(Cn2nnc3ccccc32)cc1)N1CCC(O)(Cn2cnn3cccc3c2=O)CC1` [Compound I-68, 3-((1-(4-((1H-benzo[d][1,2,3]triazol-1-yl)methyl)benzoyl)-4-hydroxypiperidin-4-yl)methyl)pyrrolo[2,1-f][1,2,4]triazin-4(3H)-one] is lower in IC50: > 10 µM for the first, 1 to 10 µM for the second.

First: CC(C)c1ccc(-c2cccc(C(=O)N3CCC(O)(Cn4cnn5cccc5c4=O)CC3)c2)cc1 [Compound I-14, 3-((4-hydroxy-1-(4′-isopropyl-[1,1′-biphenyl]-3-carbonyl)piperidin-4-yl)methyl)pyrrolo[2,1-f][1,2,4]triazin-4(3H)-one]
Second: Cc1ccc(-c2cccc(C(=O)N3CCC(O)(Cn4cnn5cccc5c4=O)CC3)c2)cc1 [Compound I-7, 3-((4-hydroxy-1-(4′-methyl-[1,1′-biphenyl]-3-carbonyl)piperidin-4-yl)methyl)pyrrolo[2,1-f][1,2,4]triazin-4(3H)-one]
The IC50 of the first is higher: > 10 µM for the first, 1 to 10 µM for the second.

`O=C(C1CCN(c2nc3ccccc3o2)CC1)N1CCC(O)(Cn2cnn3cccc3c2=O)CC1` [Compound I-33, 3-((1-(1-(benzo[d]oxazol-2-yl)piperidine-4-carbonyl)-4-hydroxypiperidin-4-yl)methyl)pyrrolo[2,1-f][1,2,4]triazin-4(3H)-one] and `O=C(CC1CCc2ccccc2C1)N1CCC(O)(Cn2cnn3cccc3c2=O)CC1` (centres unmarked) [Compound I-58, 3-((4-hydroxy-1-(2-(1,2,3,4-tetrahydronaphthalen-2-yl)acetyl)piperidin-4-yl)methyl)pyrrolo[2,1-f][1,2,4]triazin-4(3H)-one] cannot be ordered by IC50: > 10 µM for the first, > 10 µM for the second.

`O=C(Nc1cc(F)cc(F)c1)Nc1cc2c(=O)n(CC3(O)CCN(C(=O)C4CC4)CC3)cnn2c1` [Compound I-93, 1-(3-((1-(cyclopropanecarbonyl)-4-hydroxypiperidin-4-yl)methyl)-4-oxo-3,4-dihydropyrrolo[2,1-f][1,2,4]triazin-6-yl)-3-(3,5-difluorophenyl)urea] and `O=C(NCc1ccc(Cl)cc1)Nc1cc2c(=O)n(CC3(O)CCN(C(=O)C4CC4)CC3)cnn2c1` [Compound I-91, 1-(4-chlorobenzyl)-3-(3-((1-(cyclopropanecarbonyl)-4-hydroxypiperidin-4-yl)methyl)-4-oxo-3,4-dihydropyrrolo[2,1-f][1,2,4]triazin-6-yl)urea] cannot be ordered by IC50: > 10 µM for the first, > 10 µM for the second.

`O=C(c1ccccc1-c1ccsc1)N1CCC(O)(Cn2cnn3cccc3c2=O)CC1` [Compound I-3, 3-((4-hydroxy-1-(2-(thiophen-3-yl)benzoyl)piperidin-4-yl)methyl)pyrrolo[2,1-f][1,2,4]triazin-4(3H)-one] and `O=C(c1ccccc1-c1ccccc1)N1CCC(O)(Cn2cnn3cccc3c2=O)CC1` [Compound I-2, 3-((1-([1,1′-biphenyl]-2-carbonyl)-4-hydroxypiperidin-4-yl)methyl)pyrrolo[2,1-f][1,2,4]triazin-4(3H)-one] cannot be ordered by IC50: > 10 µM for the first, > 10 µM for the second.

First: Cc1cc2c(=O)n(CC3(O)CCN(C(=O)C(C)Cc4ccccc4)CC3)cnn2c1 (centres unmarked) [Compound I-84, 3-((4-hydroxy-1-(2-methyl-3-phenylpropanoyl)piperidin-4-yl)methyl)-6-methylpyrrolo[2,1-f][1,2,4]triazin-4(3H)-one]
Second: N#CC(Cc1ccccc1)C(=O)N1CCC(O)(Cn2cnn3cccc3c2=O)CC1 (centres unmarked) [Compound I-54, 2-benzyl-3-(4-hydroxy-4-((4-oxopyrrolo[2,1-f][1,2,4]triazin-3(4H)-yl)methyl)piperidin-1-yl)-3-oxopropanenitrile]
The IC50 of the first is lower: 1 to 10 µM for the first, > 10 µM for the second.

First: N#Cc1ccc(N2CCN(C(=O)N3CCC(O)(Cn4cnn5cccc5c4=O)CC3)CC2)cc1 [Compound I-73, 4-(4-(4-hydroxy-4-((4-oxopyrrolo[2,1-f][1,2,4]triazin-3(4H)-yl)methyl)piperidine-1-carbonyl)piperazin-1-yl)benzonitrile]
Second: O=C(c1cccc(-c2ccccc2)c1)N1CCC(O)(Cn2cnn3cccc3c2=O)CC1 [Compound I-11, 3-((1-([1,1′-biphenyl]-3-carbonyl)-4-hydroxypiperidin-4-yl)methyl)pyrrolo[2,1-f][1,2,4]triazin-4(3H)-one]
The IC50 of the first is higher: > 10 µM for the first, 1 to 10 µM for the second. The second is the more potent here.

`O=C(c1ccc(-c2ccc3ncnn3c2)cc1)N1CCC(O)(Cn2cnn3cccc3c2=O)CC1` [Compound I-48, 3-((1-(4-([1,2,4]triazolo[1,5-a]pyridin-6-yl)benzoyl)-4-hydroxypiperidin-4-yl)methyl)pyrrolo[2,1-f][1,2,4]triazin-4(3H)-one] and `O=C(c1ccc(-c2ccccc2)cc1)N1CCC(O)(Cn2cnn3cccc3c2=O)CC1` [Compound I-36, 3-((1-([1,1′-biphenyl]-4-carbonyl)-4-hydroxypiperidin-4-yl)methyl)pyrrolo[2,1-f][1,2,4]triazin-4(3H)-one] cannot be ordered by IC50: > 10 µM for the first, > 10 µM for the second.

First: CCOc1cccc(-c2ccc(C(=O)N3CCC(O)(Cn4cnn5cccc5c4=O)CC3)cc2)c1 [Compound I-37, 3-((1-(3′-ethoxy-[1,1′-biphenyl]-4-carbonyl)-4-hydroxypiperidin-4-yl)methyl)pyrrolo[2,1-f][1,2,4]triazin-4(3H)-one]
Second: O=C(c1ccc(-c2ccc3ncccc3c2)cc1)N1CCC(O)(Cn2cnn3cccc3c2=O)CC1 [Compound I-43, 3-((4-hydroxy-1-(4-(quinolin-6-yl)benzoyl)piperidin-4-yl)methyl)pyrrolo[2,1-f][1,2,4]triazin-4(3H)-one]
The IC50 of the first is higher: > 10 µM for the first, 1 to 10 µM for the second. The second is the more potent here.

`CNC(=O)Nc1cc2c(=O)n(CC3(O)CCN(C(=O)C[C@@H](C)c4ccccc4)CC3)cnn2c1` [Compound I-82, (R)-1-(3-((4-hydroxy-1-(3-phenylbutanoyl)piperidin-4-yl)methyl)-4-oxo-3,4-dihydropyrrolo[2,1-f][1,2,4]triazin-6-yl)-3-methylurea] and `Cc1ccc2c(=O)n(CC3(O)CCN(C(=O)CC(C)c4ccccc4)CC3)cnn12` (centres unmarked) [Compound I-76, 3-((4-hydroxy-1-(3-phenylbutanoyl)piperidin-4-yl)methyl)-7-methylpyrrolo[2,1-f][1,2,4]triazin-4(3H)-one] fall in the same range of IC50: 0.2 to 1 µM for the first, 0.2 to 1 µM for the second.

Compared with `O=C(c1ccccc1)N1CCC(O)(Cn2cnn3c(-c4ccccc4)ncc3c2=O)CC1` [Compound I-115, 3-((1-benzoyl-4-hydroxypiperidin-4-yl)methyl)-7-phenylimidazo[5,1-f][1,2,4]triazin-4(3H)-one], `O=C(c1cnc(-c2ccccc2)o1)N1CCC(O)(Cn2cnn3cccc3c2=O)CC1` [Compound I-32, 3-((4-hydroxy-1-(2-phenyloxazole-5-carbonyl)piperidin-4-yl)methyl)pyrrolo[2,1-f][1,2,4]triazin-4(3H)-one] is higher in IC50: 1 to 10 µM for the first, > 10 µM for the second. The first is the more potent here.

`Cn1c(-c2cccc(C(=O)N3CCC(O)(Cn4cnn5cccc5c4=O)CC3)c2)cc2ccccc21` [Compound I-25, 3-((4-hydroxy-1-(3-(1-methyl-1H-indol-2-yl)benzoyl)piperidin-4-yl)methyl)pyrrolo[2,1-f][1,2,4]triazin-4(3H)-one] gave an IC50 of 0.2 to 1 µM.

Reference: patent US11795171B2, “Pyrrolotriazinones and imidazotriazinones as ubiquitin-specific protease 7 inhibitors” (Valo Health, Inc., priority 2014, dated 2023)
